Experimental data from patent publication US12157730B2, “Heteroaryl derivative, method for producing same, and pharmaceutical composition comprising same as effective component” (VORONOI INC., priority 2019, dated 2024).

Molecular target: T1, Ba/F3 cell EGFR Exon20 ins NPH (Homo sapiens, UniProt P00533, INS773NPH)
T1 construct: expressed in transfected cells; host or cells: Ba/F3
Experiment: Ba/F3 cell proliferation suppression, EGFR Exon20 ins NPH
Assay type: cell-based
Conditions: GI50 class; Ba/F3 cell line with NPH inserted at Exon20 of EGFR; 72 hours
Method in brief: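 Growth suppression determined as GI50 following 72 h exposure across 12 concentrations up to 50 um, with viability by luminescent ATP assay (CellTiter-Glo).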

SMILES: C=CC(=O)Nc1cc(Nc2cc(N3OCC[C@@H]3c3cccc(F)c3F)ncn2)c(OC)cc1N1CCC(N2CCN(C3CC3)CC2)CC1 [Example 127, N-(2-(4-(4-cyclopropylpiperazine-1-yl)piperidine-1-yl)-5-((6-((R)-3-(2,3-difluorophenyl)isoxazolidine-2-yl)pyrimidine-4-yl)amino)-4-methoxyphenyl) acrylamide]
- Ba/F3 (NPH) Activity: A (GI50 < 50 nM)

SMILES: C=CC(=O)Nc1cc(Nc2cc(N3OCC[C@@H]3c3ccc(F)c(F)c3F)ncn2)c(OC)cc1N1CCN(C)CC1 [compound 572, N-(4-methoxy-2-(4-methylpiperazine-1-yl)-5-((6-((R)-3-(2,3,4-trifluorophenyl)isoxazolidine-2-yl)pyrimidine-4-yl)amino)phenyl) acrylamide]
- Ba/F3 (NPH) Activity: A (GI50 < 50 nM)

SMILES: C=CC(=O)Nc1cc(Nc2cc(N3OCC[C@@H]3c3cccc4ccccc34)ncn2)c(OC)cc1N1CCC(N2CCN(C3CC3)CC2)CC1 [Example 146, N-(2-(4-(4-cyclopropylpiperazine-1-yl)piperidine-1-yl)-4-methoxy-5-((6-((R)-3-(naphthalene-1-yl)isoxazolidine-2-yl)pyrimidine-4-yl)amino)phenyl)acrylamide]
- Ba/F3 (NPH) Activity: B (50 nM ≤ GI50 < 500 nM)

SMILES: C=CC(=O)Nc1cc(Nc2cc(N3OCC[C@@H]3c3ccccc3)ncn2)c(OC)cc1N1CCC(N2CCN(CC)CC2)CC1 [Example 55, N-(2-(4-(4-ethylpiperazine-1-yl)piperidine-1-yl)-4-methoxy-5-((6-((R)-3-phenylisoxazolidine-2-yl)pyrimidine-4-yl)amino)phenyl) acrylamide]
- Ba/F3 (NPH) Activity: A (GI50 < 50 nM)

SMILES: C=CC(=O)Nc1cc(Nc2cc(N3OCC[C@@H]3c3cccc(Cl)c3F)ncn2)c(OC)cc1N1CCC(N2C[C@H]3C[C@@H]2CO3)CC1 [Example 258, N-(2-(4-((1R,4R)-2-oxa-5-azabicyclo [2.2.1]heptane-5-yl)piperidine-1-yl)-5-((6-((R)-3-(3-chloro-2-fluorophenyl)isoxazolidine-2-yl)pyrimidine-4-yl)amino)-4-methoxyphenyl) acrylamide]
- Ba/F3 (NPH) Activity: A (GI50 < 50 nM)

SMILES: C=CC(=O)Nc1cc(Nc2cc(N3OCC[C@@H]3c3ccc(C)nc3)ncn2)c(OC)cc1N1C[C@H]2C[C@@H]1CO2 [Example 224, N-(2-((1R,4R)-2-oxa-5-azabicyclo[2.2.1]heptane-5-yl)-4-methoxy-5-((6-((R)-3-(6-methylpyridine-3-yl)isoxazolidine-2-yl)pyrimidine-4-yl)amino)phenyl)acrylamide]
- Ba/F3 (NPH) Activity: C (500 nM ≤ GI50 < 5000 nM)

SMILES: C=CC(=O)Nc1cc(Nc2cc(N3OCC[C@@H]3c3ccc(F)c(F)c3)ncn2)c(OC)cc1N1CCC(N2C[C@H]3C[C@@H]2CO3)CC1 [compound 498, N-(2-(4-((1R,4R)-2-oxa-5-azabicyclo[2.2.1]heptane-5-yl)piperidine-1-yl)-5-((6-((R)-3-(3,4-difluorophenyl)isoxazolidine-2-yl)pyrimidine-4-yl)amino)-4-methoxyphenyl) acrylamide]
- Ba/F3 (NPH) Activity: A (GI50 < 50 nM)

SMILES: C=CC(=O)Nc1cc(Nc2cc(N3OCC[C@@H]3c3ccc(Cl)c(Cl)c3)ncn2)c(OC)cc1N1CCN(CC)CC1 [compound 672, N-(5-((6-((R)-3-(3,4-dichlorophenyl)isoxazolidine-2-yl)pyrimidine-4-yl)amino)-2-(4-ethylpiperazine-1-yl)-4-methoxyphenyl) acrylamide]
- Ba/F3 (NPH) Activity: A (GI50 < 50 nM)

SMILES: C=CC(=O)Nc1cc(Nc2cc(N3OCC[C@@H]3c3ccc(F)c(F)c3)ncn2)c(OC)cc1N1CCC(N2CCN(CC)CC2)CC1 [compound 545, N-(5-((6-((R)-3-(3,4-difluorophenyl)isoxazolidine-2-yl)pyrimidine-4-yl)amino)-2-(4-(4-ethylpiperazine-1-yl)piperidine-1-yl)-4-methoxyphenyl) acrylamide]
- Ba/F3 (NPH) Activity: A (GI50 < 50 nM)

SMILES: C=CC(=O)Nc1cc(Nc2cc(N3OCC[C@@H]3c3cccc(OC)c3)ncn2)c(OC)cc1N1CCC(N2CCN(C(C)C)CC2)CC1 [compound 780, N-(2-(4-(4-isopropylpiperazine-1-yl)piperidine-1-yl)-4-methoxy-5-((6-((R)-3-(3-methoxyphenyl)isoxazolidine-2-yl)pyrimidine-4-yl)amino)phenyl)acrylamide]
- Ba/F3 (NPH) Activity: B (50 nM ≤ GI50 < 500 nM)

SMILES: C=CC(=O)Nc1cc(Nc2cc(N3OCC[C@H]3Cc3ccccc3)ncn2)c(OC)cc1N1CCN(C2CCCC2)CC1 [compound 977, N-(5-((6-((R)-3-benzylisoxazolidine-2-yl)pyrimidine-4-yl)amino)-2-(4-cyclopentylpiperazine-1-yl)-4-methoxyphenyl) acrylamide]
- Ba/F3 (NPH) Activity: C (500 nM ≤ GI50 < 5000 nM)

SMILES: C=CC(=O)Nc1cc(Nc2cc(N3OCC[C@@H]3c3ccc4ccccc4c3)ncn2)c(OC)cc1N(C)CCN(C)C [compound 511, N-(2-((2-(dimethylamino)ethyl)(methyl)amino)-4-methoxy-5-((6-((R)-3-(naphthalene-2-yl)isoxazolidine-2-yl)pyrimidine-4-yl)amino)phenyl)acrylamide]
- Ba/F3 (NPH) Activity: A (GI50 < 50 nM)

SMILES: C=CCN1CCN(C2CCN(c3cc(OC)c(Nc4cc(N5OCC[C@@H]5c5cccc(Cl)c5C)ncn4)cc3NC(=O)C=C)CC2)CC1 [Example 213, N-(2-(4-(4-allylpiperazine-1-yl)piperidine-1-yl)-5-((6-((R)-3-(3-chloro-methylphenyl)isoxazolidine-2-yl)pyrimidine-4-yl)amino)-4-methoxyphenyl) acrylamide]
- Ba/F3 (NPH) Activity: A (GI50 < 50 nM)

SMILES: C=CC(=O)Nc1cc(Nc2cc(N3OCC[C@@H]3Cc3cc(F)cc(F)c3)ncn2)c(OC)cc1N1CCC(N2CCN(C3CC3)CC2)CC1 [compound 1033, N-(2-(4-(4-cyclopropylpiperazine-1-yl)piperidine-1-yl)-5-((6-((S)-3-(3,5-difluorobenzyl)isoxazolidine-2-yl)pyrimidine-4-yl)amino)-4-methoxyphenyl) acrylamide]
- Ba/F3 (NPH) Activity: A (GI50 < 50 nM)

SMILES: C=CC(=O)Nc1cc(Nc2cc(N3OCC[C@@H]3c3cc(F)cc(F)c3)ncn2)cc(N2CCN(C)CC2)c1 [compound 633, N-(3-((6-((R)-3-(3,5-difluorophenyl)isoxazolidine-2-yl)pyrimidine-4-yl)amino)-5-(4-methylpiperazine-1-yl)phenyl)acrylamide]
- Ba/F3 (NPH) Activity: B (50 nM ≤ GI50 < 500 nM)

SMILES: C=CC(=O)Nc1cc(Nc2cc(N3OCC[C@@H]3c3cc(F)cc(F)c3)ncn2)c(OC)cc1N1CCC(N2C[C@@H]3CCN(C)[C@@H]3C2)CC1 [compound 446, N-(5-((6-((R)-3-(3,5-difluorophenyl)isoxazolidine-2-yl)pyrimidine-4-yl)amino)-4-methoxy-2-(4-((3aS,6aS)-1-methylhexahydropyrrolo [3,4-b]pyrrole-5(1H)-yl)piperidine-1-yl)phenyl)acrylamide]
- Ba/F3 (NPH) Activity: A (GI50 < 50 nM)

SMILES: C=CC(=O)Nc1cc(Nc2cc(N3OCC[C@@H]3c3ccccc3)ncn2)c(OC)cc1N1CCC(N2CC[C@@H](N(C)C)C2)CC1 [compound 787, N-(2-(4-((R)-3-(dimethylamino)pyrolidine-1-yl)piperidine-1-yl)-4-methoxy-5-((6-((R)-3-phenylisoxazolidine-2-yl)pyrimidine-4-yl)amino)phenyl) acrylamide]
- Ba/F3 (NPH) Activity: A (GI50 < 50 nM)

SMILES: C=CC(=O)Nc1cc(Nc2cc(N3OCC[C@@H]3c3cccc(C#N)c3)ncn2)c(OC)cc1N1CCC(N2C[C@@H]3C[C@H]2CO3)CC1 [compound 493, N-(2-(4-((1S,4S)-2-oxa-5-azabicyclo[2.2.1]heptane-5-yl)piperidine-1-yl)-5-((6-((R)-3-(3-cyanophenyl)isoxazolidine-2-yl)pyrimidine-4-yl)amino)-4-methoxyphenyl) acrylamide]
- Ba/F3 (NPH) Activity: B (50 nM ≤ GI50 < 500 nM)

SMILES: C=CC(=O)Nc1cc(Nc2cc(N3OCC[C@@H]3c3cccc(C#N)c3)ncn2)c(OC)cc1N1CCC(N2CCN(C)CC2)CC1 [compound 398, N-(5-((6-((R)-3-(3-cyanophenyl)isoxazolidine-2-yl)pyrimidine-4-yl)amino)-4-methoxy-2-(4-(4-methylpiperazine-1-yl)piperidine-1-yl)phenyl) acrylamide]
- Ba/F3 (NPH) Activity: A (GI50 < 50 nM)

SMILES: C=CC(=O)Nc1cc(Nc2cc(N3OCC[C@@H]3c3cccc(F)c3)ncn2)c(OC)cc1N1CCC(N2CCOCC2)CC1 [Example 38, N-(5-((6-((R)-3-(3-fluorophenyl)isoxazolidine-2-yl)pyrimidine-4-yl)amino)-4-methoxy-2-(4-morpholinopiperidine-1-yl)phenyl) acrylamide]
- Ba/F3 (NPH) Activity: A (GI50 < 50 nM)

SMILES: C=CC(=O)Nc1cc(Nc2cc(N3OCC[C@@H]3c3cccc(Cl)c3Cl)ncn2)c(OC)cc1N1CCC(N2CCN(C3CCOCC3)CC2)CC1 [Example 208, N-(5-((6-((R)-3-(2,3-dichlorophenyl)isoxazolidine-2-yl)pyrimidine-4-yl)amino)-4-methoxy-2-(4-(4-(tetrahydro-2H-pyran-4-yl)piperazine-1-yl)piperidine-1-yl)phenyl)acrylamide]
- Ba/F3 (NPH) Activity: A (GI50 < 50 nM)

SMILES: C=CC(=O)Nc1cc(Nc2cc(N3OCC[C@@H]3c3cccc(OC)c3)ncn2)c(OC)cc1N1CCC(N2C[C@@H]3C[C@H]2CO3)CC1 [Example 27, N-(2-(4-((1S,4S)-2-oxa-5-azabicyclo[2.2.1]heptane-5-yl)piperidine-1-yl)-4-methoxy-5-((6-((R)-3-(3-methoxyphenyl)isoxazolidine-2-yl)pyrimidine-4-yl)amino)phenyl) acrylamide]
- Ba/F3 (NPH) Activity: A (GI50 < 50 nM)

SMILES: C=CC(=O)Nc1cc(Nc2cc(N3OCC[C@@H]3c3cccc(Cl)c3Cl)ncn2)c(OC)cc1N1CCC(N2CCN(C3CC3)CC2)CC1 [Example 162, N-(2-(4-(4-cyclopropylpiperazine-1-yl)piperidine-1-yl)-5-((6-((R)-3-(2,3-dichlorophenyl)isoxazolidine-2-yl)pyrimidine-4-yl)amino)-4-methoxyphenyl) acrylamide]
- Ba/F3 (NPH) Activity: A (GI50 < 50 nM)
